Data on three compounds can be found in publication PMC6149853, “Species-Specific Inactivation of Triosephosphate Isomerase from Trypanosoma brucei: Kinetic and Molecular Dynamics Studies” (Molecules : A Journal of Synthetic Chemistry and Natural …, 2017).

For experiment [1], the target named is T1, HsTIM (human triosephosphate isomerase) (Homo sapiens, UniProt P60174).
T1 construct: gene TPI1
As to the kind of experiment: residual activity after […] h preincubation; alpha-GPDH coupled assay, NADH at […] nm. Format: biochemical. The settings on record: 5 µg/mL enzyme preincubated with compound 2 h at 36 °C, 10% DMSO, 10 mM EDTA, pH 7.4; assay 1 mM GAP, 25 °C.

For experiment [2], the target named is T2, TbTIM (triosephosphate isomerase from Trypanosoma brucei) (Trypanosoma brucei, UniProt P04789).
T2 construct: homodimer; 250 residues per monomer
The experiment is described as above. Format: biochemical. The settings on record: read-out: I50.

T2 sequence (P04789 whole entry): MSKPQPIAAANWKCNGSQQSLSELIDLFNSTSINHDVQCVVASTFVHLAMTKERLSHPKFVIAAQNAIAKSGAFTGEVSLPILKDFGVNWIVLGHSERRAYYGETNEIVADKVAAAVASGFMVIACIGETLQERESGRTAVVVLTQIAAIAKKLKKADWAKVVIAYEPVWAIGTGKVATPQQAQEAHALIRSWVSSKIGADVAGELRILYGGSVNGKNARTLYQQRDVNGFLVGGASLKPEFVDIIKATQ
T1 sequence (P60174 2-249): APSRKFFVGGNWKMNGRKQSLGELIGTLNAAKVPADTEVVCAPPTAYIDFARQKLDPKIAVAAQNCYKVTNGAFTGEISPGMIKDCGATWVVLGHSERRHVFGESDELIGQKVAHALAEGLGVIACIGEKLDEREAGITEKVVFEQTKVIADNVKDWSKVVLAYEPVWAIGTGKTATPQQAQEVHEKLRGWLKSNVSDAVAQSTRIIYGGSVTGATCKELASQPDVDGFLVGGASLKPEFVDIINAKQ

With `COC(=O)Nc1nc2cc(Oc3cccc4ccccc34)ccc2[nH]1` [compound 1, Methyl(5-(naphthalen-1-yloxy)-1H-benzimidazol-2-yl)carbamate], in experiment [1], the “% inactivation at 100 μM” value is given as 12%. The IC50 in experiment [2] turned out to be 84 µM.
Turning to `COC(=O)Nc1nc2cc(Oc3ccc(Cl)c4ccccc34)ccc2[nH]1` [compound 2, Methyl(5-((4-chloronaphthalen-1-yl)oxy)-1H-benzimidazol-2-yl)carbamate], in experiment [1], the “% inactivation at 100 μM” value was found to be 23%. Further, the IC50 in experiment [2] turned out to be 82 µM.
In the case of `CSc1nc2ccc(C(=O)N/N=C/c3ccc([N+](=O)[O-])o3)cc2[nH]1` [compound 3, (E)-2-(Methylthio)-N′-((5-nitrofuran-2-yl)methylene)-1H-benzimidazole-5-carbohydrazide], in experiment [2], the IC50 was 73 µM.
